Assay results as given in US20070093520A1, “Method of treatment of diarrhea-predominant irritable bowel syndrome in a subject” (priority 2005, published 2007).

Tested on: diarrhea-predominant IBS subjects
Assay: 3007 Study: open-label 52-week safety study, adverse events and withdrawals
Conditions: Cilansetron 2 mg/Cilansetron 2 mg

Cc1nccn1C[C@H]1CCc2c(c3cccc4c3n2CCC4)C1=O [cilansetron, (R)-(−)-4,5,6,8,9,10-hexahydro-10-[(2-methyl-1H-imidazol-1-yl)methyl]-11H-pyrido-[3,2,1-jk]-carbazol-11-one]
19 (7%) n (%): TEAE: Musculoskeletal and Connective Tissue Signs and Symptoms NEC | TEAE: Nausea and Vomiting Symptoms | TEAE: Skeletal and Cardiac Muscle Analyses
56 (22%) n (%): TEAE: Musculoskeletal and Connective Tissue Disorders
24 (9%) n (%): TEAE: Sinusitis NOS
8 (3%) n (%): TEAE: Muscle Cramps | TEAE: Physical Examination Procedures
3 (1%) n (%): TEAE: Irritable Bowel Syndrome Aggravated | TEAE: Laceration | TEAE: Neutrophil Count Decreased | TEAE: Non-Site Specific Procedural Complications | TEAE: Osteoarthritis Aggravated | TEAE: Sinus Headache
21 (8%) n (%): TEAE: Lower Respiratory Tract and Lung Infections
9 (4%) n (%): TEAE: Muscle Related Signs and Symptoms NEC
15 (6%) n (%): TEAE: Nausea
0 n (%): TEAE: Inguinal Hernia NOS | TEAE: Inguinal Hernias | TEAE: Kidney Infection NOS | TEAE: Limb Discomfort NOS | TEAE: Lip and Palate Disorders NEC | TEAE: Liver Function Tests NOS Abnormal | TEAE: Lower Limb Fracture NOS | TEAE: Movement Disorder NOS | TEAE: Muscle Infections and Inflammations | TEAE: Musculoskeletal and Soft Tissue Imaging Procedures | TEAE: Myasthenia Gravis | TEAE: Myeloradiculopathy | TEAE: Myositis | TEAE: Nail Fungal Infection NOS | TEAE: Neuromuscular Junction Dysfunction | TEAE: Osteopenia | TEAE: Otitis Media NOS | TEAE: Popliteal Bursitis | TEAE: Proctalgia | TEAE: Pruritus Ani | TEAE: Rectal Disorder NOS | TEAE: Rectal Tenesmus | TEAE: Red Blood Cells Urine | TEAE: Renal Bruit | TEAE: Rheumatoid Arthritis | TEAE: Rheumatoid Arthritis Aggravated | TEAE: Rheumatoid Arthropathies | TEAE: Rotator Cuff Syndrome | TEAE: Sinusitis Acute NOS | TEAE: Skin Infection NOS | TEAE: Sleep Apnoea Syndrome | TEAE: Sleep Apnoeas | TEAE: Speech and Language Abnormalities | TEAE: Spinal Cord and Nerve Root Disorders NEC | TEAE: Spondylitic Myelopathy | TEAE: Stomach Discomfort | TEAE: Tendon Disorders | TEAE: Tendonitis | TEAE: Tinea Cruris | TEAE: Trigger Finger
1 (<1%) n (%): TEAE: Intervertebral Disc Disorder NOS | TEAE: Intraocular Pressure Increased | TEAE: Irritable Bowel Syndrome | TEAE: Joint Related Disorders NEC | TEAE: Joint Sprain | TEAE: Joint Swelling | TEAE: Ligament Sprain | TEAE: Limb Injuries NEC (Incl Traumatic Amputation) | TEAE: Localised Infection | TEAE: Localised Osteoarthritis | TEAE: Loss of Consciousness | TEAE: Lower Limb Fractures and Dislocations | TEAE: Memory Loss (Excl Dementia) | TEAE: Monoarthritis | TEAE: Monocyte Count Decreased | TEAE: Muscle Spasms | TEAE: Muscle Tone Abnormalities | TEAE: Musculoskeletal Chest Pain | TEAE: Myalgia | TEAE: Mycoplasma Infections | TEAE: Nail Infection NOS | TEAE: Neck Pain | TEAE: Night Cramps | TEAE: Nitrite Urine Present | TEAE: Non-Accidental Overdose | TEAE: Ophthalmic Function Diagnostic Procedures | TEAE: Oral Dryness and Saliva Altered | TEAE: Overdoses | TEAE: Paraesthesias and Dysaesthesias | TEAE: Parkinson's Disease NOS | TEAE: Parkinson's Disease and Parkinsonism | TEAE: Periorbital Haematoma | TEAE: Peripheral Swelling | TEAE: Pneumonia Mycoplasmal | TEAE: Pneumonia NOS | TEAE: Post Procedural Discomfort | TEAE: Rectal Cramps | TEAE: Red Blood Cell Analyses | TEAE: Renal Function Analyses | TEAE: Reproductive Organ and Breast Histopathology Procedures | TEAE: Respiratory Tract Infection NOS | TEAE: Rib Fracture | TEAE: Road Traffic Accident | TEAE: Seizures and Seizure Disorders NEC | TEAE: Skin Fungal Infection NOS | TEAE: Skin Structures and Soft Tissue Infections | TEAE: Somnolence | TEAE: Spondyloarthropathies | TEAE: Spondylosis | TEAE: Staphylococcal Infection NOS | TEAE: Staphylococcal Infections | TEAE: Status Epilepticus | TEAE: Streptococcal Infection NOS | TEAE: Stress Fracture | TEAE: Temporomandibular Joint Disorder NOS | TEAE: Tension Headaches | TEAE: Thoracic Cage Fractures and Dislocations | TEAE: Tinea Infections | TEAE: Tinea Pedis | TEAE: Tongue Coated | TEAE: Tongue Signs and Symptoms | TEAE: Tooth Disorder NOS | TEAE: Tooth Impacted | TEAE: Tooth Infection | TEAE: Transient Global Amnesia | TEAE: Tremor | TEAE: Tremor (Excl Congenital) | TEAE: Umbilical Hernia NOS | TEAE: Umbilical Hernias
2 (<1%) n (%): TEAE: Intervertebral Disc Degeneration NOS | TEAE: Limb Injury NOS | TEAE: Lymphocyte Count Increased | TEAE: Metabolic Bone Disorders | TEAE: Mineral and Electrolyte Analyses | TEAE: Monocyte Count Increased | TEAE: Mononeuropathies | TEAE: Muscle Pains | TEAE: Osteoporosis NOS | TEAE: Pain in Limb | TEAE: Plantar Fasciitis | TEAE: Post Procedural Pain | TEAE: Protein Urine Present | TEAE: Soft Tissue Disorders NEC | TEAE: Tissue Enzyme Analyses NEC | TEAE: Toothache
18 (7%) n (%): TEAE: Nasopharyngitis | TEAE: Rhinoviral Infections
4 (2%) n (%): TEAE: Intervertebral Disc Herniation | TEAE: Intestinal Haemorrhages | TEAE: Metabolism Tests NEC | TEAE: Neurological Signs and Symptoms NEC | TEAE: Osteoarthropathies | TEAE: Pharyngitis Streptococcal | TEAE: Rectal Haemorrhage
26 (10%) n (%): TEAE: Injury, Poisoning and Procedural Complications
5 (2%) n (%): TEAE: Intervertebral Disc Disorders NEC | TEAE: Migraine Headaches | TEAE: Migraine NOS | TEAE: Muscle Strain | TEAE: Non-Site Specific Injuries NEC | TEAE: Streptococcal Infections
11 (4%) n (%): TEAE: Influenza | TEAE: Influenza Viral Infections | TEAE: Joint Related Signs and Symptoms
12 (5%) n (%): TEAE: Liver Function Analyses
41 (16%) n (%): TEAE: Nervous System Disorders
220 (86%) n (%): TEAE: Total Number of Subjects with at Least One TEAE
77 (30%) n (%): TEAE: Investigations
106 (41%) n (%): TEAE: Infections and Infestations
6 (2%) n (%): TEAE: Muscle, Tendon and Ligament Injuries | TEAE: Site Specific Injuries NEC | TEAE: Tooth Abscess | TEAE: Triglyceride Analyses
